Results taken from patent US7163947B2, “1-Amino 1H-imidazoquinolines” (3M Innovative Properties Company, priority 2003, dated 2007).

| melting point [°C] | SMILES |
| --- | --- |
| 157.1 to 158.7 | CCCCc1nc2c(N)nc3ccccc3c2n1NC(C)C [Example 1, 2-Butyl-N^1-isopropyl-1H-imidazo[4,5-c]quinoline-1,4-diamine] |
| 159.3 to 160.5 | CCCCc1nc2c(N)nc3ccccc3c2n1NCc1ccccc1 [Example 2, N^1-Benzyl-2-butyl-1H-imidazo[4,5-c]quinoline-1,4-diamine] |
| 227 to 229 | Cc1nc2c(N)nc3ccccc3c2n1NC(C)C [Example 3, N^1-Isopropyl-2-methyl-1H-imidazo[4,5-c]quinoline-1,4-diamine] |
| 152 to 155 | CCOCc1nc2c(N)nc3ccccc3c2n1NCc1ccccc1 [Example 4, N^1-Benzyl-2-ethoxymethyl-1H-imidazo[4,5-c]quinoline-1,4-diamine] |
| 162 to 164 | CCOCc1nc2c(N)nc3ccccc3c2n1NC(C)C [Example 5, 2-Ethoxymethyl-N^1-isopropyl-1H-imidazo[4,5-c]quinoline-1,4-diamine] |
| 143 to 145 | CCOCc1nc2c(N)nc3ccccc3c2n1NC1CCCCC1 [Example 6, N^1-Cyclohexyl-2-(ethoxymethyl)-1H-imidazo[4,5-c]quinoline-1,4-diamine] |
| 213 to 215 | CCOCc1nc2c(N)nc3ccccc3c2n1N(C)C [Example 7, N^1,N^1-Dimethyl-2-ethoxymethyl-1H-imidazo[4,5-c]quinoline-1,4-diamine] |
| 125 to 128 | CCOCc1nc2c(N)nc3ccccc3c2n1NC(CC)CC [Example 9, 2-Ethoxymethyl-N^1-(1-ethylpropyl)-1H-imidazo[4,5-c]quinoline-1,4-diamine] |
| 137 to 140 | CCOCc1nc2c(N)nc3ccccc3c2n1NCC(C)C [Example 10, 2-Ethoxymethyl-N^1-isobutyl-1H-imidazo[4,5-c]quinoline-1,4-diamine] |
| 144 to 146 | CCOCc1nc2c(N)nc3c(c2n1NC(C)C)CCCC3 [Example 11, 2-Ethoxymethyl-N^1-isopropyl-6,7,8,9-tetrahydro-1H-imidazo[4,5-c]quinoline-1,4-diamine] |
| 129 to 132 | CCOCc1nc2c(N)nc3ccccc3c2n1NCCC(C)C [Example 12, 2-Ethoxymethyl-N^1-(3-methylbutyl)-1H-imidazo[4,5-c]quinoline-1,4-diamine] |
| 223 to 224 | CCOCc1nc2c(N)nc3ccccc3c2n1N1CCOCC1 [Example 13, 2-Ethoxymethyl-1-(morpholin-4-yl)-1H-imidazo[4,5-c]quinolin-4-amine] |
| 148 to 150 | CCOCc1nc2c(N)nc3ccccc3c2n1NCCCNS(C)(=O)=O [Example 14, N-{3-[(4-Amino-2-ethoxymethyl-1H-imidazo[4,5-c]quinolin-1-yl)amino]propyl}methanesulfonamide] |
| 177 to 179 | CCOCc1nc2c(N)nc3ccccc3c2n1NCCCNC(=O)Nc1ccccc1 [Example 15, 1-{3-[(4-Amino-2-ethoxymethyl-1H-imidazo[4,5-c]quinolin-1-yl)amino]propyl}-3-phenylurea] |
| 181 to 184 | CCCc1nc2c(N)nc3ccccc3c2n1NC(C)C [Example 16, N^1-Isopropyl-2-propyl-1H-imidazo[4,5-c]quinoline-1,4-diamine] |
| 162 to 164 | CCCc1nc2c(N)nc3c(c2n1NC(C)C)CCCC3 [Example 17, N^1-Isopropyl-2-propyl-6,7,8,9-tetrahydro-1H-imidazo[4,5-c]quinoline-1,4-diamine] |
| 218 to 219 | CCCc1nc2c(N)nc3cc(-c4cccnc4)ccc3c2n1NC(C)C [Example 19, N^1-Isopropyl-2-propyl-7-(pyridin-3-yl)-1H-imidazo[4,5-c]quinoline-1,4-diamine] |
| 194 to 196 | CCOCc1nc2c(N)nc3cc(OCc4ccccc4)ccc3c2n1NC(C)C [Example 20, 7-Benzyloxy-2-ethoxymethyl-N^1-isopropyl-1H-imidazo[4,5-c]quinoline-1,4-diamine] |
| 158 to 160 | CCOCc1nc2c(N)nc3ccccc3c2n1NCCCNC(=O)N1CCOCC1 [Example 23, [3-(4-Amino-2-ethoxymethyl-1H-imidazo[4,5-c]quinolin-1-ylamino)propyl]morpholine-4-carboxamide] |

| melting point [°C] | SMILES |
| --- | --- |
| 75 to 77 | CCOCc1nc2c(N)nc3ccccc3c2n1NCCCNC(=O)C1CCCC1 [Example 24, N-(3-{[4-Amino-2-(ethoxymethyl)-1H-imidazo[4,5-c]quinolin-1-yl]amino}propyl)cyclopentanecarboxamide] |
| 174 to 177 | CCOCc1nc2c(N)nc3ccccc3c2n1NCCCNC(=O)NC(C)C [Example 25, 1-(3-{[4-Amino-2-(ethoxymethyl)-1H-imidazo[4,5-c]quinolin-1-yl]amino}propyl)-3-isopropylurea] |
| 185 to 187 | CCOCc1nc2c(N)nc3c(c2n1NCCCNC(=O)NC(C)C)CCCC3 [Example 26, 1-(3-{[4-Amino-2-(ethoxymethyl)-6,7,8,9-tetrahydro-1H-imidazo[4,5-c]quinolin-1-yl]amino}propyl)-3-isopropylurea] |
| 217 to 227 | CCCc1nc2c(N)nc3cc(-c4cccc(NS(C)(=O)=O)c4)ccc3c2n1NC(C)C [Example 27, N-{3-[4-Amino-1-(isopropylamino)-2-propyl-1H-imidazo[4,5-c]quinolin-7-yl]phenyl}methanesulfonamide] |
| 152 to 154 | CCOCc1nc2c(N)nc3c(c2n1NCCCNC(=O)N1CCOCC1)CCCC3 [Example 28, N-(3-{[4-Amino-2-(ethoxymethyl)-6,7,8,9-tetrahydro-1H-imidazo[4,5-c]quinolin-1-yl]amino}propyl)morpholine-4-carboxamide] |
| 274 to 276 | CCCc1nc2c(N)nc3cc(-c4cccc(C(=O)N5CCOCC5)c4)ccc3c2n1NC(C)C [Example 29, N^1-Isopropyl-7-[3-(morpholin-4-ylcarbonyl)phenyl]-2-propyl-1H-imidazo[4,5-c]quinoline-1,4-diamine] |
| 181 to 183 | CCOCc1nc2c(N)nc3cc(OCCCNS(C)(=O)=O)ccc3c2n1NC(C)C [Example 30, N-(3-{[4-Amino-2-(ethoxymethyl)-1-(isopropylamino)-1H-imidazo[4,5-c]quinolin-7-yl]oxy}propyl)methanesulfonamide] |
| 217 to 220 | CCCc1nc2c(N)nc3cc(-c4ccccc4)ccc3c2n1NC(C)C [Example 31, N^1-Isopropyl-7-phenyl-2-propyl-1H-imidazo[4,5-c]quinoline-1,4-diamine] |
| 108 to 110 | CCOCc1nc2c(N)nc3ccccc3c2n1NCCCNC(=O)C(C)C [Example 32, N-(3-{[4-Amino-2-(ethoxymethyl)-1H-imidazo[4,5-c]quinolin-1-yl]amino}propyl)-2-methylpropanamide] |
| 163 to 165 | CCOCc1nc2c(N)nc3c(c2n1NCCCNC(=O)C(C)C)CCCC3 [Example 33, N-(3-{[4-Amino-2-(ethoxymethyl)-6,7,8,9-tetrahydro-1H-imidazo[4,5-c]quinolin-1-yl]amino}propyl)-2-methylpropanamide] |
| 178 to 181 | CCOCc1nc2c(N)nc3ccccc3c2n1NCCCNC(C)=O [Example 34, N-(3-{[4-Amino-2-(ethoxymethyl)-1H-imidazo[4,5-c]quinolin-1-yl]amino}propyl)acetamide] |
| 100 to 103 | CCCc1nc2c(N)nc3cc(CCc4cccnc4)ccc3c2n1NC(C)C [Example 35, N^1-Isopropyl-2-propyl-7-(2-pyridin-3-ylethyl)-1H-imidazo[4,5-c]quinoline-1,4-diamine] |
| 245 to 247 | CCc1nc2c(N)nc3ccccc3c2n1NC(C)C [Example 36, 2-Ethyl-N^1-isopropyl-1H-imidazo[4,5-c]quinoline-1,4-diamine] |
| 198 to 200 | CCOCc1nc2c(N)nc3c(c2n1NCCCNC(C)=O)CCCC3 [Example 37, N-(3-{[4-Amino-2-(ethoxymethyl)-6,7,8,9-tetrahydro-1H-imidazo[4,5-c]quinolin-1-yl]amino}propyl)acetamide] |
| 138 to 141 | CCNC(=O)NCCCNn1c(COCC)nc2c(N)nc3ccccc3c21 [Example 38, 1-(3-{[4-Amino-2-(ethoxymethyl)-1H-imidazo[4,5-c]quinolin-1-yl]amino}propyl)-3-ethylurea] |
| 189 to 191 | CCNC(=O)NCCCNn1c(COCC)nc2c(N)nc3c(c21)CCCC3 [Example 39, 1-(3-{[4-Amino-2-(ethoxymethyl)-6,7,8,9-tetrahydro-1H-imidazo[4,5-c]quinolin-1-yl]amino}propyl)-3-ethylurea] |
| 167 to 169 | CCc1nc2c(N)nc3ccccc3c2n1NCCCNC(C)=O [Example 40, N-{3-[(4-Amino-2-ethyl-1H-imidazo[4,5-c]quinolin-1-yl)amino]propyl}acetamide] |
| 175 to 176 | CCc1nc2c(N)nc3c(c2n1NCCCNC(C)=O)CCCC3 [Example 41, N-{3-[(4-Amino-2-ethyl-6,7,8,9-tetrahydro-1H-imidazo[4,5-c]quinolin-1-yl)amino]propyl}acetamide] |
| 228 to 229 | CC(C)Nn1c(CO)nc2c(N)nc3ccccc3c21 [Example 42, [4-Amino-1-(isopropylamino)-1H-imidazo[4,5-c]quinolin-2-yl]methanol] |
